Key:
Test in all cases: relative viability (nuclei count vs DMSO), 5 days (fraction); higher = more cells survive
Wnt-C59 + Luminespib = compound: CC1=NC=CC(=C1)C2=CC=C(C=C2)CC(=O)NC3=CC=C(C=C3)C4=CN=CC=C4 [Wnt-C59] + CCNC(=O)c1noc(-c2cc(C(C)C)c(O)cc2O)c1-c1ccc(CN2CCOCC2)cc1 [Luminespib] (partner 0.01 µM)
How it was run: (§1)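 Lung cancer cell lines were pin-tool dosed in 1536-well plates on the day after seeding, with either a lone drug or a fixed anchor-drug dose plus five library-drug doses (not always all listed) in √10 steps. Nuclei were counted on 4× images after 5 days. Relative viability is the ratio of treated-well to vehicle-well nuclei counts, with each value a median of duplicate plates.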

Lapatinib + Vorinostat = compound: CS(=O)(=O)CCNCc1ccc(-c2ccc3ncnc(Nc4ccc(OCc5cccc(F)c5)c(Cl)c4)c3c2)o1 [Lapatinib] + O=C(CCCCCCC(=O)Nc1ccccc1)NO [Vorinostat] (partner 1 µM)
How it was run: as §1

Lapatinib + Luminespib = compound: CS(=O)(=O)CCNCc1ccc(-c2ccc3ncnc(Nc4ccc(OCc5cccc(F)c5)c(Cl)c4)c3c2)o1 [Lapatinib] + CCNC(=O)c1noc(-c2cc(C(C)C)c(O)cc2O)c1-c1ccc(CN2CCOCC2)cc1 [Luminespib] (partner 0.01 µM)
How it was run: as §1

Lapatinib + Phenformin = compound: CS(=O)(=O)CCNCc1ccc(-c2ccc3ncnc(Nc4ccc(OCc5cccc(F)c5)c(Cl)c4)c3c2)o1 [Lapatinib] + N=C(N)NC(=N)NCCc1ccccc1 [Phenformin] (partner 250 µM)
How it was run: as §1

| Cell Line | relative viability (Wnt-C59 + Luminespib; first compound 0.001 µM) | relative viability (Wnt-C59 + Luminespib; first compound 0.01 µM) | relative viability (Wnt-C59 + Luminespib; first compound 0.03162 µM) | relative viability (Wnt-C59 + Luminespib; first compound 0.1 µM) | relative viability (Lapatinib + Vorinostat; first compound 0.06325 µM) | relative viability (Lapatinib + Vorinostat; first compound 0.2 µM) | relative viability (Lapatinib + Vorinostat; first compound 0.6325 µM) | relative viability (Lapatinib + Vorinostat; first compound 2 µM) | relative viability (Lapatinib + Luminespib; first compound 0.02 µM) | relative viability (Lapatinib + Luminespib; first compound 0.06325 µM) | relative viability (Lapatinib + Luminespib; first compound 0.2 µM) | relative viability (Lapatinib + Luminespib; first compound 0.6325 µM) | relative viability (Lapatinib + Luminespib; first compound 2 µM) | relative viability (Lapatinib + Phenformin; first compound 0.02 µM) | relative viability (Lapatinib + Phenformin; first compound 0.06325 µM) | relative viability (Lapatinib + Phenformin; first compound 0.2 µM) | relative viability (Lapatinib + Phenformin; first compound 0.6325 µM) | relative viability (Lapatinib + Phenformin; first compound 2 µM) | relative viability (Lapatinib + Vorinostat; first compound 0.02 µM) |
| --- | --- | --- | --- | --- | --- | --- | --- | --- | --- | --- | --- | --- | --- | --- | --- | --- | --- | --- | --- |
| SW 1573 | 0.227 | 0.398 | 0.37 | 0.177 | 0.612 | 0.987 | 0.828 | 0.774 | 0.293 | 0.23 | 0.387 | 0.233 | 0.146 | 0.398 | 0.338 | 0.346 | 0.347 | 0.354 |  |
| NCI-H2170 | 0.583 | 0.722 | 0.758 | 0.655 | 0.747 | 0.578 | 0.582 | 0.372 | 0.664 | 0.385 | 0.433 | 0.462 | 0.223 | 0.351 | 0.408 | 0.455 | 0.359 | 0.198 | 0.726 |
| NCI-H358 | 0.315 | 0.341 | 0.291 | 0.475 | 0.418 | 0.511 | 0.362 | 0.215 |  | 0.159 |  | 0.255 | 0.173 | 0.25 | 0.107 | 0.222 | 0.215 | 0.171 | 0.596 |
| COR-L 105 | 0.913 | 0.609 | 0.823 | 0.645 | 0.825 | 0.779 | 0.42 | 0.589 | 0.592 | 0.698 | 0.857 | 0.716 | 0.6 | 0.486 | 0.336 | 0.418 | 0.289 | 0.275 | 0.773 |

Reference: the supplement of paper PMC10307832
